The values that follow are results of earlier work, collected in patent US12269021B2, “Artificial protein catalyst” (Glytech, Inc., priority 2019, dated 2025).

In series [1] the test system is various cancer cell strains.
A further series relates to αvβ3 and αvβ5 integrins. The following applies: integrins overexpressed on the cancer cell surface.

Turning to `CC(C)=CCC/C(C)=C/CC/C(C)=C/COc1ccc2ccc(=O)oc2c1` [Umbelliprenin], the cytotoxic activity entry in series [1] was “cytotoxic activity”. As for cRGD, the integrin inhibition result in the series on αvβ3 and αvβ5 integrins is “inhibits”.
